In patent publication US10161929B2, “Theranostics platform and methods of use” (Sanford Burnham Prebys Medical Discovery Institute, priority 2012, dated 2018):

Columns and labels:
Type in all cases: cell-based, human
[1] = test system: Immortalized fibroblasts from a CMD patient; assay: Laminin binding, immortalized fibroblasts from a CMD patient (FIG. 5); conditions: dose response curve
Procedure: FIG. 5. […] A dose response curve for Givinostat was prepared measuring laminin staining intensity at various concentrations of the compound. Laminin was labeled with rabbit anti-laminin antibodies. Nuclei are stained with DAPI. Fibroblasts obtained from a muscular dystrophy patient were seeded at 3000 cells per well in 384-well plates and treated in duplicate at 10 μm with individual compounds from the drug/nutraceutical library. After 48 hours in culture conditions, the cells were exposed to serum free media containing 0.1% BSA and 10 ug/ml laminin from Engelbreth-Holm-Swarm murine sarcoma basement membrane for a period of 2 hours. Cells were then fixed with 4% paraformaldehyde and stained with DAPI and a laminin-specific antibody, followed by a fluorescently labeled secondary antibody directed against the laminin specific antibody. The plates were then scanned using an Opera high content confocal microscopy screening system (PerkinElmer) at 20× magnification with separate fluorescent exposures, utilizing a UV light source and a 561 nm laser. Image analysis was performed to quantify levels of laminin staining using a customized algorithm written with Acapella software (Perkin Elmer). The cytoplasm was defined using DAPI staining as a mask, and the average cytoplasmic intensity of fluorescence per cell was calculated on the basis of at least six random fields captured per well.

[2] = test system: Fibroblasts obtained from a muscular dystrophy patient; assay: Laminin binding assay (high content screen) in fibroblasts from a muscular dystrophy patient; conditions: for hit in the laminin binding screen (normalizes fibroblast laminin binding; at least 20% activity compared with controls): 10 μm, duplicate, 48 hours, 384-well plates, anti-laminin staining
Procedure: (§1) Fibroblasts obtained from a muscular dystrophy patient were seeded at 3000 cells per well in 384-well plates and treated in duplicate at 10 μm with individual compounds from the drug/nutraceutical library. After 48 hours in culture conditions, the cells were exposed to serum free media containing 0.1% BSA and 10 ug/ml laminin from Engelbreth-Holm-Swarm murine sarcoma basement membrane for a period of 2 hours. Cells were then fixed with 4% paraformaldehyde and stained with DAPI and a laminin-specific antibody, followed by a fluorescently labeled secondary antibody directed against the laminin specific antibody. The plates were then scanned using an Opera high content confocal microscopy screening system (PerkinElmer) at 20× magnification with separate fluorescent exposures, utilizing a UV light source and a 561 nm laser.
(§2) Image analysis was performed to quantify levels of laminin staining using a customized algorithm written with Acapella software (Perkin Elmer). The cytoplasm was defined using DAPI staining as a mask, and the average cytoplasmic intensity of fluorescence per cell was calculated on the basis of at least six random fields captured per well.
A compound in the drug/nutraceutical library was considered to normalize the level of fibroblast laminin binding if the compound scored at least 20% activity compared with controls. Fibroblasts from a healthy individual, or from patient cells treated with Trichostatin A at 2 uM were used as positive controls.
Trichostatin A, SAHA, and Givinostat (another HDAC inhibitor in the same class as Trichostatin A and SAHA) were further tested in an eight-point dose-response assay (at a range of 20-0.02 μm, at three fold dilutions) in triplicate.

[3] = test system: fibroblasts from the CMD-POMT1 patient; assay: Laminin binding, fibroblasts from a POMT1 deficient CMD patient (FIG. 9)
Procedure: (§3) FIG. 9. Fibroblasts were taken from an FKRP deficient CMD patient and a POMT1 deficient CMD patient. […] Laminin is labeled with rabbit anti-laminin antibodies. Nuclei are stained with DAPI.
as §1, §2

[4] = test system: fibroblasts from the CMD-FKRP patient; assay: Laminin binding, fibroblasts from FKRP deficient patients (FIG. 6, FIG. 9)
Description: FIG. 6. Fibroblasts were obtained from CMD patients with either low (CMD-FKRP) laminin binding, mid-range laminin binding (LGMD/CMD-FKRP), or closer to normal (LGMD-FKRP) laminin binding. […] Laminin was labeled with rabbit anti-laminin antibodies. Nuclei are stained with DAPI.
as §3
Fibroblasts obtained from a muscular dystrophy patient were seeded at 3000 cells per well in 384-well plates and treated in duplicate at 10 μm with individual compounds from the drug/nutraceutical library. After 48 hours in culture conditions, the cells were exposed to serum free media containing 0.1% BSA and 10 ug/ml laminin from Engelbreth-Holm-Swarm murine sarcoma basement membrane for a period of 2 hours. […]
as §2

hit in the laminin binding screen (normalizes fibroblast laminin binding; at least 20% activity compared with controls) [2]	laminin binding ([4]; fibroblasts from the CMD-FKRP patient, FIG. 9)	laminin binding ([4]; fibroblasts with low (CMD-FKRP), mid-range (LGMD/CMD-FKRP) or closer to normal (LGMD-FKRP) laminin binding, FIG. 6)	Structure (SMILES)	levels of laminin binding (laminin staining intensity) [1]	laminin binding of patient's fibroblasts after treatment ([2]; fibroblasts from a CMD-affected patient, compared with unaffected sibling, rabbit anti-laminin antibodies, FIG. 4)	laminin binding [3]
–	–	–	CCN(CC)Cc1ccc2cc(COC(=O)Nc3ccc(C(=O)NO)cc3)ccc2c1 [Givinostat]	increased levels of laminin binding	–	–
identified as hits	–	–	O=C(CCCCCCC(=O)Nc1ccccc1)NO [SAHA]	–	normalized to the levels of the patient's unaffected sibling	–
identified as hits	increased laminin binding	increased laminin binding	CC(/C=C/C(=O)NO)=C\[C@@H](C)C(=O)c1ccc(N(C)C)cc1 [Trichostatin A]	–	–	did not result in visibly increased laminin binding
